Results taken from ChEMBL document CHEMBL1201862, “PubChem BioAssay data set” (2004).
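1) Cells in 96-well plates. 2) Compound, 48 h, 5 concentrations. 3) Linear interpolation between surrounding doses. 4) Unreached endpoint = highest concentration. Here, GI50 denotes the concentration required for 50% inhibition of growth.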 The source made the active and inactive calls. Cut-off read from the data, not from the text of the source: active = GI50 up to about 1.1 µM and inactive = higher.

Legend:
Assay in all cases: DTP human tumour cell line panel, 48 h
SW-620 = system: SW-620
CCRF-CEM = system: CCRF-CEM
A498 = system: A498
OVCAR-8 = system: OVCAR-8
RPMI-8226 = system: RPMI-8226
SF-268 = system: SF-268
UO-31 = system: UO-31
SNB-75 = system: SNB-75
U-251 = system: U-251
NCI-H23 = system: NCI-H23
NCI-H522 = system: NCI-H522
NCI-H460 = system: NCI-H460
DLD-1 = system: DLD-1
SF-295 = system: SF-295
SK-OV-3 = system: SK-OV-3
HCT-15 = system: HCT-15
HCT-116 = system: HCT-116
MCF7 = system: MCF7
MDA-MB-231 = system: MDA-MB-231
BT-549 = system: BT-549

SMILES	GI50 (SW-620)	GI50 (CCRF-CEM)	GI50 (A498)	GI50 (OVCAR-8)	GI50 (RPMI-8226)	GI50 (SF-268)	GI50 (UO-31)	GI50 (SNB-75)	GI50 (U-251)	GI50 (NCI-H23)	GI50 (NCI-H522)	GI50 (NCI-H460)	GI50 (DLD-1)	GI50 (SF-295)	GI50 (SK-OV-3)	GI50 (HCT-15)	GI50 (HCT-116)	GI50 (MCF7)	GI50 (MDA-MB-231)	GI50 (BT-549)
COc1cc(C2C(C(=O)Nc3cc(F)c(F)cc3F)=C(C)NC(C)=C2C(=O)Nc2cc(F)c(F)cc2F)ccc1O	37.7 µM (inactive)	14 µM (inactive)	19.4 µM (inactive)	25.4 µM (inactive)	16.3 µM (inactive)	15 µM (inactive)	8.04 µM (inactive)	2.36 µM (inactive)	23.6 µM (inactive)	17.1 µM (inactive)	13.3 µM (inactive)	27.3 µM (inactive)	21.5 µM (inactive)	21.3 µM (inactive)	–	–	–	–	–	–
COc1ccc(C2ON(c3ccccc3)CC=C2C)cc1 (stereo unspecified)	> 100 µM (inactive)	33.7 µM (inactive)	–	> 100 µM (inactive)	43.7 µM (inactive)	> 100 µM (inactive)	34 µM (inactive)	94.8 µM (inactive)	99.8 µM (inactive)	52.7 µM (inactive)	19.2 µM (inactive)	> 100 µM (inactive)	79.8 µM (inactive)	93.8 µM (inactive)	> 100 µM (inactive)	65.9 µM	66.7 µM (inactive)	–	–	–
CC(CCC(=O)O)(c1cc(Br)c(O)c(Br)c1)c1cc(Br)c(O)c(Br)c1	84.3 µM (inactive)	< 0.01 µM (active)	30.5 µM (inactive)	78.2 µM (inactive)	48.8 µM (inactive)	59.7 µM (inactive)	66.7 µM (inactive)	55.7 µM (inactive)	48.9 µM (inactive)	47.4 µM (inactive)	39.6 µM (inactive)	40.6 µM (inactive)	–	98.4 µM (inactive)	> 100 µM (inactive)	54.3 µM	50.4 µM (inactive)	70.6 µM (inactive)	94.8 µM (inactive)	38.4 µM (inactive)
CCN(CC)c1ccc(/N=N/c2ccc([N+](=O)[O-])cc2OC(=O)/C=C/c2ccccc2)c(OC(=O)/C=C/c2ccccc2)c1	7.57 µM (inactive)	3.02 µM (inactive)	> 26.9 µM (inactive)	6.27 µM (inactive)	–	1.93 µM (inactive)	4.45 µM (inactive)	8.04 µM (inactive)	5.43 µM (inactive)	12.2 µM (inactive)	23.2 µM (inactive)	0.7 µM (active)	4.18 µM (inactive)	4.6 µM (inactive)	4.16 µM (inactive)	19.5 µM	3.55 µM (inactive)	–	–	–
O=c1c2c3c(sc2nc2n1N=CN(c1ccc(Cl)cc1)C2)CCCC3	> 100 µM (inactive)	17 µM (inactive)	4.12 µM (inactive)	83.8 µM (inactive)	46.8 µM (inactive)	20.8 µM (inactive)	> 100 µM (inactive)	24.7 µM (inactive)	54.1 µM (inactive)	> 100 µM (inactive)	10.5 µM (inactive)	38 µM (inactive)	–	70.1 µM (inactive)	> 100 µM (inactive)	19.7 µM	26.9 µM (inactive)	> 100 µM (inactive)	16.7 µM (inactive)	> 100 µM (inactive)
Fc1ccc(C(OCCN2CCC3CCC(C2)N3C/C=C/c2cccnc2)c2ccc(F)cc2)cc1 (stereo unspecified)	10.1 µM (inactive)	4.11 µM (inactive)	14.3 µM (inactive)	13 µM (inactive)	3.43 µM (inactive)	12.8 µM (inactive)	1.88 µM (inactive)	14.2 µM (inactive)	11.9 µM (inactive)	12.8 µM (inactive)	13.6 µM (inactive)	12.7 µM (inactive)	–	9.23 µM (inactive)	14.7 µM (inactive)	10 µM	5.93 µM (inactive)	11 µM (inactive)	13.3 µM (inactive)	13.6 µM (inactive)
CCN(CC)C1C(=O)NC1C#Cc1ccccc1 (stereo unspecified)	69.5 µM (inactive)	32 µM (inactive)	> 100 µM (inactive)	> 100 µM (inactive)	76.7 µM (inactive)	> 100 µM (inactive)	> 100 µM (inactive)	> 100 µM (inactive)	> 100 µM (inactive)	71.4 µM (inactive)	25 µM (inactive)	> 100 µM (inactive)	–	> 100 µM (inactive)	> 100 µM (inactive)	96.6 µM	> 100 µM (inactive)	49.2 µM (inactive)	> 100 µM (inactive)	61.9 µM (inactive)
N#Cc1c(NC(=S)Nc2ccc(Cl)cc2)sc2c1CCN(N1CCc3c(sc(NC(=S)Nc4ccc(Cl)cc4)c3C#N)C1)C2	30.1 µM (inactive)	33 µM (inactive)	15.7 µM (inactive)	29.3 µM (inactive)	> 100 µM (inactive)	38.9 µM (inactive)	14.9 µM (inactive)	69 µM (inactive)	29.2 µM (inactive)	33 µM (inactive)	18.2 µM (inactive)	32.4 µM (inactive)	–	16.1 µM (inactive)	> 100 µM (inactive)	24 µM	21.6 µM (inactive)	37.2 µM (inactive)	12.7 µM (inactive)	36.6 µM (inactive)
